Assay results taken from patent publication US11638713B2, “Patentiflorin A analogs as antiviral agents” (priority 2019, dated 2023).
Read-outs that look alike come from different tables or passages of the source.

Columns and labels:
HIV = experiment: microbe, parasite or virus in culture; format: cell-based; conditions: for EC50: Human immunodeficiency virus 1, A549
SARS-CoV-2 = experiment: microbe, parasite or virus in culture; format: cell-based; conditions: Severe acute respiratory syndrome coronavirus 2, HepG2, read-out: EC50 against SARS-CoV-2
in vitro = conditions: human
EBOV (Ebola virus) = experiment: microbe, parasite or virus in culture; format: cell-based; conditions: Zaire ebolavirus; for inhibition at 1 µg/mL: 1000 ng/mL; for inhibition at 5 µg/mL: 5000 ng/mL; for EC50: A549, read-out: EC50 against EBOV; for inhibition at 0.5 µg/mL: 500 ng/mL; for inhibition at 0.0125 µg/mL: 12.5 ng/mL; for inhibition at 0.05 µg/mL: 50 ng/mL
A549 cells = experiment: cells; conditions: Homo sapiens, A549, read-out: % Inhibition against A549 cells
H5N1 virus = experiment: microbe, parasite or virus in culture; format: cell-based, H5N1 influenza virus; conditions: for inhibition at 1 µg/mL: H5N1, A549, 1000 ng/mL; for inhibition at 5 µg/mL: H5N1, A549, 5000 ng/mL; for inhibition at 0.5 µg/mL: H5N1, A549, 500 ng/mL; for EC50: H5N1, A549, read-out: EC50 against H5N1 virus; for inhibition at 0.05 µg/mL: H5N1, A549, 50 ng/mL; for inhibition at 0.25 µg/mL: H5N1, A549, 250 ng/mL; for inhibition at 0.0125 µg/mL: H5N1, A549, 12.5 ng/mL
[1] = test system: VSV (vesicular stomatitis virus); experiment: microbe, parasite or virus in culture; format: cell-based; conditions: for EC50: A549, read-out: EC50 against VSV; for inhibition at 0.0125 µg/mL: A549, 12.5 ng/mL; for inhibition at 0.05 µg/mL: A549, 50 ng/mL
[2] = A549, read-out: % Inhibition against EBOV
[3] = Influenza A virus, read-out: % Inhibition against H5N1 virus
[4] = CC50 against the host cell line A549
[5] = read-out: % Inhibition against VSV

| SMILES | EC50 (HIV) [nM] | CC50 (in vitro; CC50 (nM)) [nM] | EC50 (EBOV (Ebola virus)) [nM] | EC50 [1] [nM] | EC50 (H5N1 virus; Influenza A virus) [nM] | CC50 (in vitro; [4]) [nM] | inhibition at 0.05 µg/mL (H5N1 virus; [3]) [%] | inhibition at 0.25 µg/mL (H5N1 virus; [3]) [%] | further results |
| --- | --- | --- | --- | --- | --- | --- | --- | --- | --- |
| COc1cc2c(O)c3c(c(-c4ccc5c(c4)OCO5)c2cc1OC)C(=O)OC3 [Compound 5, diphyllin] | 37.1 | 3610 |  |  |  |  |  |  | EC50 (SARS-CoV-2): 150 nM |
| COc1cc2c(N=C(c3ccccc3)c3ccccc3)c3c(c(-c4ccc5c(c4)OCO5)c2cc1OC)C(=O)OC3 [Compound 19p] | 249 | > 9200 |  |  |  |  |  |  | inhibition at 1 µg/mL (EBOV (Ebola virus); [2]): 58.1%; inhibition at 5 µg/mL (EBOV (Ebola virus); [2]): 89.4%; inhibition at 1 µg/mL (A549 cells): -13%; inhibition at 5 µg/mL (A549 cells): 17.2%; inhibition at 1 µg/mL (H5N1 virus; [3]): 82.1%; inhibition at 5 µg/mL (H5N1 virus; [3]): 96.5% |
| COc1cc2c(OC3O[C@H](CO)[C@@H](O)[C@H](O)[C@H]3O)c3c(c(-c4ccc5c(c4)OCO5)c2cc1OC)C(=O)OC3 (stereo partly drawn) [Compound 26f, 7-O-β-D-glucopyranosyldiphyllin] |  | > 9220 | 516 | 1040 | 371 | 8650 |  |  | inhibition at 0.1 µg/mL (EBOV (Ebola virus); A549, 100 ng/mL, read-out: % Inhibition against EBOV): 82.7%; inhibition at 0.5 µg/mL (EBOV (Ebola virus); [2]): 89.1%; inhibition at 0.1 µg/mL (A549 cells): -3.84%; inhibition at 0.5 µg/mL (A549 cells): 18.2%; inhibition at 0.1 µg/mL ([1]; A549, 100 ng/mL, read-out: % Inhibition against VSV): 47.2%; inhibition at 0.5 µg/mL ([1]; A549, 500 ng/mL, read-out: % Inhibition against VSV): 70.8%; inhibition at 0.1 µg/mL (H5N1 virus; Influenza A virus, H5N1, A549, 100 ng/mL, read-out: % Inhibition against H5N1 virus): 62.4%; inhibition at 0.5 µg/mL (H5N1 virus; [3]): 87.2% |
| COc1cc2c(OC3O[C@H](CO)[C@H](O)[C@H](O)[C@H]3O)c3c(c(-c4ccc5c(c4)OCO5)c2cc1OC)C(=O)OC3 (stereo partly drawn) [Compound 26g, 7-O-β-D-galactopyranosyldiphyllin] | 1400 | 7770 | 123 | 210 | 63.6 | 4130 |  |  |  |
| COc1cc2c(OC3O[C@H](C)[C@@H](OC(C)=O)[C@H](O)[C@H]3OC(C)=O)c3c(c(-c4ccc5c(c4)OCO5)c2cc1OC)C(=O)OC3 (stereo partly drawn) [Compound 27be, 2″,4″-Diacetyl-7-O-β-D-patentiflorin A] | 1.96 | 1670 |  |  |  |  |  |  |  |
| COc1cc2c(OC3O[C@H](C)[C@@H](O)[C@H](OC(C)=O)[C@H]3OC(C)=O)c3c(c(-c4ccc5c(c4)OCO5)c2cc1OC)C(=O)OC3 (stereo partly drawn) [Compound 27bf, 2″,3″-Diacetyl-7-O-β-D-patentiflorin A] | 1.17 | 308 |  |  |  |  |  |  |  |
| C=CCOC(=O)O[C@H]1C(Oc2c3c(c(-c4ccc5c(c4)OCO5)c4cc(OC)c(OC)cc24)C(=O)OC3)OC[C@@H](O)[C@@H]1OC(C)=O (stereo partly drawn) [Compound 28ab2, 2″-O-allyl oxycarbonyl-3″-acetyl-7-O-β-D-xylosyldiphyllin] | 2.3 | 386 | 16.3 | 4.98 | 0.23 | 108 |  |  |  |
| C=CCOC(=O)O[C@@H]1COC(Oc2c3c(c(-c4ccc5c(c4)OCO5)c4cc(OC)c(OC)cc24)C(=O)OC3)[C@H](OC(=O)OCC=C)[C@H]1OC(C)=O (stereo partly drawn) [Compound 28ab3, 2″,4″-O-diallyl oxycarbonyl-3″-acetyl-7-O-β-D-xylosyldiphyllin] | 22.9 | 386 | 0.98 | 0.85 | 1.16 | 6.14 |  |  |  |
| C=CCOC(=O)O[C@@H]1COC(Oc2c3c(c(-c4ccc5c(c4)OCO5)c4cc(OC)c(OC)cc24)C(=O)OC3)[C@H](OC(=O)OCC=C)[C@H]1O (stereo partly drawn) [Compound 29a, 2″,4″-O-diallyl oxycarbonyl-7-O-β-D-xylosyldiphyllin] |  | 438 | 10.6 | 10.6 | 5.57 | 122 | 59.4 | 97.3 |  |
| C=CCOC(=O)O[C@H]1[C@H](O)[C@@H](OC(=O)OCC=C)C(Oc2c3c(c(-c4ccc5c(c4)OCO5)c4cc(OC)c(OC)cc24)C(=O)OC3)O[C@@H]1C (stereo partly drawn) [Compound 29b, 2″,4″-O-diallyl oxycarbonyl-7-O-β-D-patentiflorin A] | 4.7 | 187 |  |  |  |  |  |  |  |
| C=CCOC(=O)O[C@@H]1COC(Oc2c3c(c(-c4ccc5c(c4)OCO5)c4cc(OC)c(OC)cc24)C(=O)OC3)[C@H](OC(=O)OCC=C)[C@H]1OC(=O)N(C)C (stereo partly drawn) [Compound 30a, 2″,4″-O-diallyl oxycarbonyl-3″-O-dimethylcarbamyl-7-O-β-D-xylosyldiphyllin] |  | 145 | 1.84 | 8.6 | 3.88 | 35.2 | 95.7 | 97.6 | inhibition at 0.0125 µg/mL (H5N1 virus; [3]): 44.1% |
| COc1cc2c(OC3OC[C@@H](O)[C@H](OC(=O)N(C)C)[C@H]3O)c3c(c(-c4ccc5c(c4)OCO5)c2cc1OC)C(=O)OC3 (stereo partly drawn) [Compound 31a, 3″-O-dimethylcarbamyl-7-O-β-D-xylosyldiphyllin] |  | 55.8 |  |  |  |  | 94.4 | 97.6 | inhibition at 1 µg/mL (EBOV (Ebola virus); [2]): 81.8%; inhibition at 5 µg/mL (EBOV (Ebola virus); [2]): 95.2%; inhibition at 1 µg/mL (A549 cells): 47.5%; inhibition at 5 µg/mL (A549 cells): 99.8%; inhibition at 1 µg/mL ([1]; A549, 1000 ng/mL, read-out: % Inhibition against VSV): 80.4%; inhibition at 5 µg/mL ([1]; A549, 5000 ng/mL, read-out: % Inhibition against VSV): 99.6%; inhibition at 0.0125 µg/mL (H5N1 virus; [3]): 87.9%; inhibition at 1 µg/mL (H5N1 virus; [3]): 94.7%; inhibition at 5 µg/mL (H5N1 virus; [3]): 98.4% |
| COc1cc2c(OC3O[C@H](C)[C@@H](O)[C@H](OC(=O)c4cc([N+](=O)[O-])cc([N+](=O)[O-])c4)[C@H]3O)c3c(c(-c4ccc5c(c4)OCO5)c2cc1OC)C(=O)OC3 (stereo partly drawn) [Compound 31b, 3″-O-(3,5-dinitrobenzoyl)-7-O-β-D-patentiflorin A] | 13.4 | 684 |  |  |  |  |  |  |  |
| CCCC(=O)O[C@H]1[C@H](O)[C@@H](C)OC(Oc2c3c(c(-c4ccc5c(c4)OCO5)c4cc(OC)c(OC)cc24)C(=O)OC3)[C@@H]1O (stereo partly drawn) [Compound 31c, 3″-O-butyryl-7-O-β-D-patentiflorin A] | 0.03 | 13.4 |  |  |  |  |  |  | anti-HIV activity in terms of SI values (HIV): much more improved anti-HIV activity |
| COc1cc2c(OC3O[C@H](C)[C@@H](O)[C@H](OC(=O)c4ccccc4)[C@H]3O)c3c(c(-c4ccc5c(c4)OCO5)c2cc1OC)C(=O)OC3 (stereo partly drawn) [Compound 31d, 3″-O-benzoyl-7-O-β-D-patentiflorin A] | 1.36 | > 63 |  |  |  |  |  |  |  |
| COc1cc2c(OC3O[C@H](C)[C@@H](O)[C@H](OC(=O)c4ccc(N(C)C)cc4)[C@H]3O)c3c(c(-c4ccc5c(c4)OCO5)c2cc1OC)C(=O)OC3 (stereo partly drawn) [Compound 31e, 3″-O-p-dimethylaminobenzoyl-7-O-β-D-patentiflorin A] | 2.41 | 17.7 | 1.13 | 2.41 | 0.74 | 17.7 | 97.9 | 98.4 | inhibition at 0.0125 µg/mL (EBOV (Ebola virus); [2]): 77.5%; inhibition at 0.05 µg/mL (EBOV (Ebola virus); [2]): 86.5%; inhibition at 0.0125 µg/mL (A549 cells): 53.1%; inhibition at 0.05 µg/mL (A549 cells): 66.8%; inhibition at 0.0125 µg/mL [1, 5]: 77.4%; inhibition at 0.05 µg/mL [1, 5]: 86.3%; % Inhibition against H5N1 virus (H5N1 virus; 12.5 ng/mL): 95.4%; % Inhibition against H5N1 virus (H5N1 virus; 50 ng/mL): 96.5%; inhibition at 0.0125 µg/mL (H5N1 virus; [3]): 98.1% |
| COc1cc2c(OC3O[C@H](C)[C@@H](O)[C@H](OC(=O)C4CC4)[C@H]3O)c3c(c(-c4ccc5c(c4)OCO5)c2cc1OC)C(=O)OC3 (stereo partly drawn) [Compound 31g, 3″-O-cyclopropanecarbonyl-7-O-4i-D-patentiflorin A] |  | 26.7 |  |  |  |  | 97.9 | 98.1 | inhibition at 0.01 µg/mL (EBOV (Ebola virus); A549, 10 ng/mL, read-out: % Inhibition against EBOV): 79.1%; inhibition at 0.05 µg/mL (EBOV (Ebola virus); [2]): 90.9%; inhibition at 0.01 µg/mL (A549 cells): 11%; inhibition at 0.05 µg/mL (A549 cells): 54.6%; inhibition at 0.01 µg/mL ([1]; A549, 10 ng/mL, read-out: % Inhibition against VSV): 63.3%; inhibition at 0.05 µg/mL [1, 5]: 95.7%; % Inhibition against H5N1 virus (H5N1 virus; 50 ng/mL): 89.0%; inhibition at 0.01 µg/mL (H5N1 virus; Influenza A virus, H5N1, A549, 10 ng/mL, read-out: % Inhibition against H5N1 virus): 78.9%; inhibition at 0.0125 µg/mL (H5N1 virus; [3]): 97.9% |
| COc1cc2c(OC3OC[C@@H](O)[C@H](OCc4ccccc4)[C@H]3O)c3c(c(-c4ccc5c(c4)OCO5)c2cc1OC)C(=O)OC3 (stereo partly drawn) [Compound 31l, 3″-O-benzyl-7-O-β-D-xylosyldiphyllin] |  |  | 0.19 | 0.37 | 0.013 | 4.85 | 96 | 96.8 | inhibition at 0.0125 µg/mL (EBOV (Ebola virus); [2]): 86.4%; inhibition at 0.05 µg/mL (EBOV (Ebola virus); [2]): 94.2%; inhibition at 0.0125 µg/mL (A549 cells): 52%; inhibition at 0.05 µg/mL (A549 cells): 82.1%; inhibition at 0.0125 µg/mL [1, 5]: 88.7%; inhibition at 0.05 µg/mL [1, 5]: 98.4%; % Inhibition against H5N1 virus (H5N1 virus; 12.5 ng/mL): 95.1%; % Inhibition against H5N1 virus (H5N1 virus; 50 ng/mL): 95.6%; inhibition at 0.0125 µg/mL (H5N1 virus; [3]): 82.8% |
| CN(C)CCOc1ccc(/C(=C(/CCCl)c2ccccc2)c2ccccc2)cc1 [Toremifene, toremifene, reference compound] |  |  | 212 |  |  |  |  |  | inhibition at 0.5 µg/mL (EBOV (Ebola virus); [2]): 93.6%; inhibition at 0.5 µg/mL (A549 cells): -15.1%; inhibition at 0.5 µg/mL ([1]; A549, read-out: % Inhibition against VSV): 6.58%; inhibition at 0.5 µg/mL (H5N1 virus; [3]): 28.4% |
